Experimental data as given in patent US20230365519A1, “CARBOXYLIC DIARYLTHIAZEPINEAMINES AND USES THEREOF” (Kures, Inc., priority 2020, published 2023).

Experiment: Brain pharmacokinetics of tianeptine and its 5-carbon metabolite (7i) in mice
Method: Experimental Protocol for PK Studies. […] Brain samples were collected from three mice at 0.08, 0.25, 0.5, 1, 2, 4, 8 and 24 h, homogenized using ice-cold phosphate buffer saline (pH 7.4), and stored below -70° C. until analysis. Total homogenate volume was three times the tissue weight. All samples were processed for analysis by protein precipitation using acetonitrile (ACN) and analyzed with a fit-for-purpose LC/MS/MS method (LLOQ - 1.01 ng/mL in brain). Pharmacokinetic parameters were calculated using the non-compartmental analysis tool of Phoenix WinNonlin® (Version 6.3).

[1] = C57BL/6 mice, single injection of tianeptine 30 mg/kg i.p.
[2] = mice, after tianeptine 30 mg/kg i.p., in words

CN1c2ccccc2C(NCCCCC(=O)O)c2ccc(Cl)cc2S1(=O)=O.Cl (stereo not drawn) [Compound 7i]
AUClast [1]: 5963 ng·h/g | CL [1]: 78 mL/min/kg | Tmax [1]: 0.5 h | T½ [1]: 2.33 h | brain exposure (as measured by AUC) compared to the parent compound (tianeptine) [2]: greater brain exposure | half-life compared to the parent compound (tianeptine) [2]: significantly longer half-life
